Data as given in US10561703B2, “Method of modulating sex hormone levels using a sex hormone secretion modulator” (GEMVAX & KAEL CO., LTD., priority 2013, dated 2020).

Test system: WPMY-1
Assay: Cell proliferation (CCK-8) in prostate mesenchymal cell line
Format: cell-based
Method: When testosterone is injected into the body, testosterone becomes dihydrotestosterone (DHT) due to 5α-reductase, which stimulates the proliferation of prostate cells and induces benign prostatatic hyperplasia (BPH). Based on these facts, a PEP-1 (GV1001) injection experiment was performed for the inhibition of proliferation of prostatic cells in the following manner: The cell lines were mesenchymal cell lines (WPMY-1) and epithelial cell lines (RWPE-1) of prostates obtained from BPH animal models. […] Observation of changes in the proliferation was performed by suctioning a culture medium, adding 10 μL of CCK-8 solution to each well, and measuring an optical density at 450 nm for 1 hour to about 4 hours.

EARPALLTSRLRFIPK (listed as Homo sapiens) [PEP-1, hormone secretion modulator / GnRH analog]
Cell proliferation (optical density at 450 nm) versus untreated cells (WPMY-1, 100 and 200 μM GV1001, no DHT): did not show a substantial difference in optical densities
Inhibition of DHT-induced cell proliferation (WPMY-1, 100 and 200 μM GV1001 with 25 nM DHT): substantial inhibition effects on proliferation
